Results on one compound are retold here after patent US20130143964A1, “S[…], AND COSMETIC COMPOSITION, FOOD, AND SUNDRY ARTICLE CONTAINING THE SAME” (priority 2010, published 2013).

For the experiment, the system named is activity of the sympathetic nerve. Briefly: Test of measuring sympathetic nerve activity: power spectrum analysis of systolic blood pressure fluctuation (SBP-LF) when smelling the aroma. In kind it is in vivo, human test subjects. Here is the method: The test samples were prepared by diluting ethyl 4-methoxybenzoate with ethanol to a concentration of 0.1 mass %, and how the aromas of those test samples influenced the sympathetic nerve activity was tested.
(Test Method of Measuring Sympathetic Nerve Activity)
A heart beat interval or blood pressure constantly change in a complex manner even at rest, and is under control of multiple nervous systems representing the sympathetic nerve and the parasympathetic nerve. Thus, it is known that the activity of respective nervous systems can be calculated by analyzing the frequency of a heart beat interval variation (a heart beat interval fluctuation) or a blood pressure variation (a blood pressure fluctuation). […] The activity of the sympathetic nerve is quantified from the intensity of the low frequency component (SBP-LF), and an influence of an aroma given off from the test sample on the activity of the sympathetic nerve was evaluated. […]
A tonometry sensor was fitted at a carpal radius […] of a test subject, and is connected to a patient monitor for continuous measurement of blood pressure. […] Continuously measured blood pressure data was taken in a personal computer to undergo power spectrum analysis of the blood pressure fluctuation in systole using automatic nervous system activity analytical software. […]

For `CCOC(=O)c1ccc(OC)cc1` [ethyl 4-methoxybenzoate], the “activity of the sympathetic nerve (determination from SBP-LF ratio)” value (six test subjects in their 20's smelling aroma of 0.1 mass % test sample) was “the activity of the sympathetic nerve quieted down”. The “SBP-LF ratio (SBP-LF value when smelling the aroma divided by SBP-LF value when not smelling the aroma)” value (six test subjects in their 20's, 0.1 mass % in ethanol, 20 μl soaked into cotton stuck below the nose, ethanol volatilized, 25° C., humidity 45%) is “smaller than 1”.
